From ChEMBL document CHEMBL1697731, “Cheminformatics analysis of assertions mined from literature that describe drug-induced liver injury in different species” (Chem Res Toxicol, 2010)

Columns and labels:
[1] = tested on: Hepatotoxicity; test: Literature-mined compound from Fourches et al multi-species drug-induced liver injury (DILI) dataset, effect in non-rodents
[2] = tested on: Hepatotoxicity; test: Literature-mined compound from Fourches et al multi-species drug-induced liver injury (DILI) dataset, effect in rodents; conditions: rodentia
[3] = tested on: Hepatotoxicity; test: Literature-mined compound from Fourches et al multi-species drug-induced liver injury (DILI) dataset, effect in humans; conditions: human

`CN(C)[C@@H]1C(O)=C(C(N)=O)C(=O)[C@@]2(O)C(O)=C3C(=O)c4c(O)cccc4[C@@](C)(O)[C@H]3[C@H](O)[C@@H]12` [OXYTETRACYCLINE] was tested, and the Hepatotoxicity [1] was “no drug-induced liver injury reported”, the Hepatotoxicity [2] was “drug-induced liver injury reported” and the Hepatotoxicity [3] was “no drug-induced liver injury reported”.

`C[C@H](CCC(=O)O)[C@H]1CC[C@H]2[C@@H]3[C@H](O)C[C@@H]4C[C@H](O)CC[C@]4(C)[C@H]3CC[C@]12C` [CHENODIOL] was tested, and the Hepatotoxicity [1] was “drug-induced liver injury reported”, the Hepatotoxicity [2] was “drug-induced liver injury reported” and the Hepatotoxicity [3] was “drug-induced liver injury reported”.

For `CN(C)c1ccc(C(=C2C=CC(=[N+](C)C)C=C2)c2ccc(N(C)C)cc2)cc1.[Cl-]` [GENTIAN VIOLET], the Hepatotoxicity [1] was “no drug-induced liver injury reported”, the Hepatotoxicity [2] was “drug-induced liver injury reported” and the Hepatotoxicity [3] was “no drug-induced liver injury reported”.

For `CS(=O)(=O)c1ccc([C@@H](O)[C@@H](CO)NC(=O)C(Cl)Cl)cc1` [THIAMPHENICOL], the Hepatotoxicity [1] was “no drug-induced liver injury reported”, the Hepatotoxicity [2] was “drug-induced liver injury reported” and the Hepatotoxicity [3] was “drug-induced liver injury reported”.

`NC(=O)N1c2ccccc2CC(=O)c2ccccc21` [OXCARBAZEPINE] was tested, and the Hepatotoxicity [1] was “no drug-induced liver injury reported”, the Hepatotoxicity [2] was “no drug-induced liver injury reported” and the Hepatotoxicity [3] was “drug-induced liver injury reported”.

`Cc1c(C(=O)NN2CCCCC2)nn(-c2ccc(Cl)cc2Cl)c1-c1ccc(Cl)cc1` [RIMONABANT] was tested, and the Hepatotoxicity [1] was “no drug-induced liver injury reported”, the Hepatotoxicity [2] was “drug-induced liver injury reported” and the Hepatotoxicity [3] was “no drug-induced liver injury reported”.

In the case of `Cc1ccnc2c1NC(=O)c1cccnc1N2C1CC1` [NEVIRAPINE], the Hepatotoxicity [1] is reported as “no drug-induced liver injury reported”, the Hepatotoxicity [2] is reported as “no drug-induced liver injury reported” and the Hepatotoxicity [3] is reported as “drug-induced liver injury reported”.

For `Cc1ccc(O)c([C@H](CCN(C(C)C)C(C)C)c2ccccc2)c1` [TOLTERODINE], the Hepatotoxicity [1] was “no drug-induced liver injury reported”, the Hepatotoxicity [2] was “no drug-induced liver injury reported” and the Hepatotoxicity [3] was “drug-induced liver injury reported”.

With `COc1cc2ncnc(Nc3ccc(F)c(Cl)c3)c2cc1OCCCN1CCOCC1` [GEFITINIB] the Hepatotoxicity [1] was “no drug-induced liver injury reported”, the Hepatotoxicity [2] was “drug-induced liver injury reported” and the Hepatotoxicity [3] was “drug-induced liver injury reported”.

For `CC1CCC(C(C)C)C(O)C1` (stereo unspecified) [MENTHOL], the Hepatotoxicity [1] was “no drug-induced liver injury reported”, the Hepatotoxicity [2] was “no drug-induced liver injury reported” and the Hepatotoxicity [3] was “drug-induced liver injury reported”.

`C[C@H]1c2cccc(O)c2C(=O)C2=C(O)[C@]3(O)C(=O)C(C(N)=O)=C(O)[C@@H](N(C)C)[C@@H]3[C@@H](O)[C@@H]21.O` [DOXYCYCLINE] was tested, and the Hepatotoxicity [1] was “drug-induced liver injury reported”, the Hepatotoxicity [2] was “drug-induced liver injury reported” and the Hepatotoxicity [3] was “drug-induced liver injury reported”.

For `O=C(CCNNC(=O)c1ccncc1)NCc1ccccc1` [NIALAMIDE], the Hepatotoxicity [1] was “no drug-induced liver injury reported”, the Hepatotoxicity [2] was “drug-induced liver injury reported” and the Hepatotoxicity [3] was “no drug-induced liver injury reported”.

In the case of `O=C(CCCCCCC(=O)Nc1ccccc1)NO` [VORINOSTAT], the Hepatotoxicity [1] is reported as “no drug-induced liver injury reported”, the Hepatotoxicity [2] is reported as “drug-induced liver injury reported” and the Hepatotoxicity [3] is reported as “drug-induced liver injury reported”.

With `CCC(C)C(C)(COC(N)=O)COC(N)=O` (stereo unspecified) [MEBUTAMATE] the Hepatotoxicity [1] was “no drug-induced liver injury reported”, the Hepatotoxicity [2] was “drug-induced liver injury reported” and the Hepatotoxicity [3] was “no drug-induced liver injury reported”.

With `Nc1ccc(S(=O)(=O)Nc2ccccn2)cc1` [SULFAPYRIDINE] the Hepatotoxicity [1] was “no drug-induced liver injury reported”, the Hepatotoxicity [2] was “drug-induced liver injury reported” and the Hepatotoxicity [3] was “no drug-induced liver injury reported”.

`CN(C)CCC=C1c2ccccc2COc2ccccc21` [DOXEPIN] was tested, and the Hepatotoxicity [1] was “no drug-induced liver injury reported”, the Hepatotoxicity [2] was “no drug-induced liver injury reported” and the Hepatotoxicity [3] was “drug-induced liver injury reported”.

With `CCOC(=O)c1cncn1[C@H](C)c1ccccc1` [ETOMIDATE] the Hepatotoxicity [1] was “no drug-induced liver injury reported”, the Hepatotoxicity [2] was “drug-induced liver injury reported” and the Hepatotoxicity [3] was “drug-induced liver injury reported”.

In the case of `Cc1cc(C)nc(NS(=O)(=O)c2ccc(N)cc2)n1` [SULFAMETHAZINE], the Hepatotoxicity [1] is reported as “no drug-induced liver injury reported”, the Hepatotoxicity [2] is reported as “drug-induced liver injury reported” and the Hepatotoxicity [3] is reported as “drug-induced liver injury reported”.

For `C[C@H](Cn1cnc2c(N)ncnc21)OCP(=O)(O)O` [TENOFOVIR ANHYDROUS], the Hepatotoxicity [1] was “no drug-induced liver injury reported”, the Hepatotoxicity [2] was “no drug-induced liver injury reported” and the Hepatotoxicity [3] was “drug-induced liver injury reported”.

With `C[C@H]1[C@H](NC(=O)/C(=N\OC(C)(C)C(=O)O)c2csc(N)n2)C(=O)N1S(=O)(=O)O` [AZTREONAM] the Hepatotoxicity [1] was “no drug-induced liver injury reported”, the Hepatotoxicity [2] was “no drug-induced liver injury reported” and the Hepatotoxicity [3] was “drug-induced liver injury reported”.

With `Nc1n[n+]([O-])c2ccccc2[n+]1[O-]` [TIRAPAZAMINE] the Hepatotoxicity [1] was “no drug-induced liver injury reported”, the Hepatotoxicity [2] was “drug-induced liver injury reported” and the Hepatotoxicity [3] was “no drug-induced liver injury reported”.

With `CCC1(CC)C(=O)NCC(C)C1=O` (stereo unspecified) [METHYPRYLON] the Hepatotoxicity [1] was “no drug-induced liver injury reported”, the Hepatotoxicity [2] was “drug-induced liver injury reported” and the Hepatotoxicity [3] was “no drug-induced liver injury reported”.

With `C[C@H](CS)C(=O)N1CCC[C@H]1C(=O)O` [CAPTOPRIL] the Hepatotoxicity [1] was “no drug-induced liver injury reported”, the Hepatotoxicity [2] was “drug-induced liver injury reported” and the Hepatotoxicity [3] was “drug-induced liver injury reported”.

In the case of `CN(C)[C@@H]1C(O)=C(C(=O)NCN2CCCC2)C(=O)[C@@]2(O)C(O)=C3C(=O)c4c(O)cccc4[C@@](C)(O)[C@H]3C[C@@H]12` [ROLITETRACYCLINE], the Hepatotoxicity [1] is reported as “no drug-induced liver injury reported”, the Hepatotoxicity [2] is reported as “drug-induced liver injury reported” and the Hepatotoxicity [3] is reported as “no drug-induced liver injury reported”.

In the case of `CC(C)NCC(O)COc1ccc(CC(N)=O)cc1` (stereo unspecified) [ATENOLOL], the Hepatotoxicity ([1]; Liver) is reported as “no drug-induced liver injury reported”, the Hepatotoxicity ([2]; Liver) is reported as “no drug-induced liver injury reported” and the Hepatotoxicity ([3]; Liver) is reported as “drug-induced liver injury reported”.

With `O=C1Nc2ccccc2C1(c1ccc(O)cc1)c1ccc(O)cc1` [OXYPHENISATINE] the Hepatotoxicity [1] was “no drug-induced liver injury reported”, the Hepatotoxicity [2] was “no drug-induced liver injury reported” and the Hepatotoxicity [3] was “drug-induced liver injury reported”.

For `CN1CC[C@]23c4c5ccc(O)c4O[C@H]2[C@@H](O)C=C[C@H]3[C@H]1C5` [MORPHINE], the Hepatotoxicity ([1]; Liver) was “no drug-induced liver injury reported”, the Hepatotoxicity ([2]; Liver) was “drug-induced liver injury reported” and the Hepatotoxicity ([3]; Liver) was “drug-induced liver injury reported”.

With `Cc1ccc(N(CC2=NCCN2)c2cccc(O)c2)cc1` [PHENTOLAMINE] the Hepatotoxicity [1] was “drug-induced liver injury reported”, the Hepatotoxicity [2] was “drug-induced liver injury reported” and the Hepatotoxicity [3] was “no drug-induced liver injury reported”.

For `CNC(=O)c1cc(Oc2ccc(NC(=O)Nc3ccc(Cl)c(C(F)(F)F)c3)cc2)ccn1.Cc1ccc(S(=O)(=O)O)cc1` [SORAFENIB TOSYLATE], the Hepatotoxicity [1] was “no drug-induced liver injury reported”, the Hepatotoxicity [2] was “no drug-induced liver injury reported” and the Hepatotoxicity [3] was “drug-induced liver injury reported”.

In the case of `O=NN(CCCl)C(=O)NC1CCCCC1` [LOMUSTINE], the Hepatotoxicity [1] is reported as “no drug-induced liver injury reported”, the Hepatotoxicity [2] is reported as “drug-induced liver injury reported” and the Hepatotoxicity [3] is reported as “drug-induced liver injury reported”.

With `O=C(O)[C@H]1/C(=C/CO)O[C@@H]2CC(=O)N21` [CLAVULANIC ACID] the Hepatotoxicity [1] was “no drug-induced liver injury reported”, the Hepatotoxicity [2] was “no drug-induced liver injury reported” and the Hepatotoxicity [3] was “drug-induced liver injury reported”.

In the case of `Nc1nc2ccc(OC(F)(F)F)cc2s1` [RILUZOLE], the Hepatotoxicity [1] is reported as “no drug-induced liver injury reported”, the Hepatotoxicity [2] is reported as “no drug-induced liver injury reported” and the Hepatotoxicity [3] is reported as “drug-induced liver injury reported”.

For `OC1(c2ccc(Cl)cc2)c2ccccc2C2=NCCN21` (stereo unspecified) [MAZINDOL], the Hepatotoxicity [1] was “no drug-induced liver injury reported”, the Hepatotoxicity [2] was “drug-induced liver injury reported” and the Hepatotoxicity [3] was “no drug-induced liver injury reported”.

For `CCC1(c2ccccc2)NC(=O)N(C)C1=O` (stereo unspecified) [MEPHENYTOIN], the Hepatotoxicity [1] was “no drug-induced liver injury reported”, the Hepatotoxicity [2] was “drug-induced liver injury reported” and the Hepatotoxicity [3] was “no drug-induced liver injury reported”.

With `O=C(O)CCCc1ccc(N(CCCl)CCCl)cc1` [CHLORAMBUCIL] the Hepatotoxicity [1] was “no drug-induced liver injury reported”, the Hepatotoxicity [2] was “drug-induced liver injury reported” and the Hepatotoxicity [3] was “drug-induced liver injury reported”.

In the case of `CC(C)C[C@H](NC(=O)[C@@H](Cc1ccc2ccccc2c1)NC(=O)[C@H](Cc1ccc(O)cc1)NC(=O)[C@H](CO)NC(=O)[C@H](Cc1c[nH]c2ccccc12)NC(=O)[C@H](Cc1c[nH]cn1)NC(=O)[C@@H]1CCC(=O)N1)C(=O)N[C@@H](CCCNC(=N)N)C(=O)N1CCC[C@H]1C(=O)NCC(N)=O` [NAFARELIN], the Hepatotoxicity [1] is reported as “no drug-induced liver injury reported”, the Hepatotoxicity [2] is reported as “no drug-induced liver injury reported” and the Hepatotoxicity [3] is reported as “drug-induced liver injury reported”.

For `CN1CCC[C@H]1c1cccnc1` [NICOTINE], the Hepatotoxicity ([1]; Liver) was “no drug-induced liver injury reported”, the Hepatotoxicity ([2]; Liver) was “drug-induced liver injury reported” and the Hepatotoxicity ([3]; Liver) was “drug-induced liver injury reported”.
